From patent publication US11279687B2, “Compounds and compositions for the inhibition of NAMPT” (Valo Health, Inc., priority 2010, dated 2022)
Where two headings read alike, the source gives them in different places.

Key:
A2780 cells = experiment: In-vitro cell proliferation assay (SRB), A2780 cells; assay type: cell-based; conditions: read-out: A2780 IC50;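 also: viable cell number read as SRB absorbance, background from media-only wells subtracted, IC50 interpolated from percent inhibition at two bracketing compound concentrations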
NAMPT = NAMPT (Homo sapiens (Human), UniProt P43490); experiment: NAMPT biochemical inhibition assay (NMN quantified by mass spectrometry); conditions: NAMPT biochemical inhibition; read-out: Biochem IC50
[1] = Homo sapiens, A2780, 72 h, A2780 cells, 72 hours, SRB

NAMPT, sequence (P43490 whole entry): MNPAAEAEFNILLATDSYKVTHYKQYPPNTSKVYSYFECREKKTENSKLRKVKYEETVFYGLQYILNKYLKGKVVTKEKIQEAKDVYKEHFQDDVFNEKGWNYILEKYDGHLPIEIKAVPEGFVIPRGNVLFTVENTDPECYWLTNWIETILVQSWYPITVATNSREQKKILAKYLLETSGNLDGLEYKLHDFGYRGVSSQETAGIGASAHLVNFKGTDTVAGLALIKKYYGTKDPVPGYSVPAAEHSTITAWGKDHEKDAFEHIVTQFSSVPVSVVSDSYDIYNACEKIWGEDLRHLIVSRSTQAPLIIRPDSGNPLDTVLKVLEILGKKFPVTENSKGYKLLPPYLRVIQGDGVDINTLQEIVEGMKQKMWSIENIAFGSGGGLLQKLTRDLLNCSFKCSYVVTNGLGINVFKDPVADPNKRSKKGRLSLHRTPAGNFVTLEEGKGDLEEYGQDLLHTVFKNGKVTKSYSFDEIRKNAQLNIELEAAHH

SMILES	IC50 (A2780 cells; [1])	IC50 (NAMPT)	IC50 (A2780 cells; A2780 cells, 72 hours, SRB)	IC50 (A2780 cells; Homo sapiens, A2780, 72 h)
O=C(NCc1cccnc1)Nc1ccc(S(=O)(=O)c2ccc3c(c2)OCO3)cc1 [1-[4-(2H-1,3-benzodioxole-5-sulfonyl)phenyl]-3-(pyridin-3-ylmethyl)urea]	322 nM	1 nM		
O=C(NCc1cccnc1)Nc1ccc(S(=O)(=O)N2CCOc3ccccc32)cc1 [1-[4-(3,4-dihydro-2H-1,4-benzoxazine-4-sulfonyl)phenyl]-3-(pyridin-3-ylmethyl)urea]	459 nM	10 nM		
CC1CC(C)CN(S(=O)(=O)c2ccc(NC(=O)NCc3cccnc3)cc2)C1 (stereo not shown) [1-[4-(3,5-dimethylpiperidine-1-sulfonyl)phenyl]-3-(pyridin-3-ylmethyl)urea]	14 nM	6 nM		
O=C(NCc1cccnc1)Nc1ccc(S(=O)(=O)N2CCC(F)(F)CC2)cc1 [1-[4-(4,4-difluoropiperidine-1-sulfonyl)phenyl]-3-(pyridin-3-ylmethyl)urea]	299 nM	25 nM		
O=C(NCc1cccnc1)Nc1ccc(S(=O)(=O)N2CCCN(Cc3ccccc3)CC2)cc1 [1-[4-(4-benzyl-1,4-diazepane-1-sulfonyl)phenyl]-3-(pyridin-3-ylmethyl)urea]	137 nM	5 nM		
O=C(NCc1cccnc1)Nc1ccc(S(=O)(=O)N2CCN(C(=O)[C@H]3CCCO3)CC2)cc1 [1-[4-(4-{[(2R)-oxolan-2-yl]carbonyl[piperazine-1-sulfonyl)phenyl]-3-(pyridin-3-ylmethyl)urea]		8 nM	30 nM	
O=C(NCc1cc2ccncc2s1)Nc1ccc(S(=O)(=O)c2ccccc2)cc1 [1-[4-(benzenesulfonyl)phenyl]-3-{thieno[2,3-c]pyridin-2-ylmethyl}urea]	> 30000 nM	460 nM		
O=C(NCc1cccnc1)Nc1ccc(S(=O)(=O)NC2CCCCCC2)cc1 [1-[4-(cycloheptylsulfamoyl)phenyl]-3-(pyridin-3-ylmethyl)urea]	80 nM	3 nM		
O=C(NCc1cccnc1)Nc1ccc(S(=O)(=O)NC2CCCCC2)cc1 [1-[4-(cyclohexylsulfamoyl)phenyl]-3-(pyridin-3-ylmethyl)urea]	204 nM	1 nM		
O=C(NCc1cccnc1)Nc1ccc(S(=O)(=O)C2CCCC2)cc1 [1-[4-(cyclopentanesulfonyl)phenyl]-3-(pyridin-3-ylmethyl)urea]	1860 nM	43 nM		
O=C(NCc1cccnc1)Nc1ccc(S(=O)(=O)N2CCCC3CCCCC32)cc1 (stereo not shown) [1-[4-(decahydroquinoline-1-sulfonyl)phenyl]-3-(pyridin-3-ylmethyl)urea]	14 nM	11 nM		
O=C(NCc1cccnc1)Nc1ccc(S(=O)(=O)N(Cc2ccccc2)Cc2ccccc2)cc1 [1-[4-(dibenzylsulfamoyl)phenyl]-3-(pyridin-3-ylmethyl)urea]	0.3 nM	0.8 nM		
O=C(NCc1cccnc1)Nc1ccc(S(=O)(=O)c2cncc3ccccc23)cc1 [1-[4-(isoquinoline-4-sulfonyl)phenyl]-3-(pyridin-3-ylmethyl)urea]	8.3 nM	1.4 nM		
O=C(NCc1cccnc1)Nc1ccc(S(=O)(=O)c2cccc3c2Oc2ccccc2S3)cc1 [1-[4-(phenoxathiine-4-sulfonyl)phenyl]-3-(pyridin-3-ylmethyl)urea]	1.8 nM	2.9 nM		
O=C(NCc1cccnc1)Nc1ccc(S(=O)(=O)N2CCNCC2)cc1 [1-[4-(piperazine-1-sulfonyl)phenyl]-3-(pyridin-3-ylmethyl)urea]	> 2000 nM	48.6 nM		
O=C(NCc1cccnc1)Nc1ccc(S(=O)(=O)c2cccc(C(=O)N3CCOCC3)c2)cc1 [1-[4-({3-[(morpholin-4-yl)carbonyl]benzene}sulfonyl)phenyl]-3-(pyridin-3-ylmethyl)urea]	100 to 1000 nM	5 nM		
O=C(NCc1cccnc1)Nc1ccc(S(=O)(=O)c2ccccc2)nc1 [1-[6-(benzenesulfonyl)pyridin-3-yl]-3-(pyridin-3-ylmethyl)urea]	2360 nM	15 nM		
O=C(NCc1ccc(F)c(F)c1)Nc1ccc(S(=O)(=O)N2CCCCC2)cc1 [1-[(3,4-difluorophenyl)methyl]-3-[4-(piperidine-1-sulfonyl)phenyl]urea]	29000 nM	92 nM		
Nc1ccc(CNC(=O)Nc2ccc(S(=O)(=O)c3ccc(F)cc3)cc2)cn1 [1-[(6-aminopyridin-3-yl)methyl]-3-{4-[(4-fluorobenzene)sulfonyl]phenyl}urea]	43 nM	2 nM		
O=C(NCc1cccnc1)Nc1ccc(S(=O)(=O)c2cccnc2N2CCOCC2)cc1 [1-{4-[2-(morpholin-4-yl)pyridine-3-sulfonyl]phenyl}-3-(pyridin-3-ylmethyl)urea]	100 to 1000 nM	16 nM		
O=C(NCc1cccnc1)Nc1ccc(S(=O)(=O)N2CCC(N3C(=O)Cc4ccccc43)CC2)cc1 [1-{4-[4-(2-oxo-2,3-dihydro-1H-indol-1-yl)piperidine-1-sulfonyl]phenyl}-3-(pyridin-3-ylmethyl)urea]		3 nM		58 nM

SMILES	IC50 (A2780 cells; [1])	IC50 (NAMPT)	IC50 (A2780 cells; A2780 cells, 72 hours, SRB)	IC50 (A2780 cells; Homo sapiens, A2780, 72 h)
O=C(NCc1cccnc1)Nc1ccc(S(=O)(=O)N2CCN(C(=O)Cc3ccccc3)CC2)cc1 [1-{4-[4-(2-phenylacetyl)piperazine-1-sulfonyl]phenyl}-3-(pyridin-3-ylmethyl)urea]	932 nM	3 nM		
O=C(NCc1cccnc1)Nc1ccc(S(=O)(=O)N2CCC(N3CCCCCC3)CC2)cc1 [1-{4-[4-(azepan-1-yl)piperidine-1-sulfonyl]phenyl}-3-(pyridin-3-ylmethyl)urea]	6 nM	5 nM		
O=C(NCc1cccnc1)Nc1ccc(S(=O)(=O)N2CCC(N3CCCCC3)CC2)cc1 [1-{4-[4-(piperidin-1-yl)piperidine-1-sulfonyl]phenyl}-3-(pyridin-3-ylmethyl)urea]	13 nM	7 nM		
O=C(NCc1cccnc1)Nc1ccc(S(=O)(=O)c2ccc(N3CCOCC3)nc2)cc1 [1-{4-[6-(morpholin-4-yl)pyridine-3-sulfonyl]phenyl}-3-(pyridin-3-ylmethyl)urea]	30.4 nM	3.6 nM		
O=C(NCc1cccnc1)Nc1ccc(S(=O)(=O)NC2(c3ccccc3)CCCC2)cc1 [1-{4-[(1-phenylcyclopentyl)sulfamoyl]phenyl}-3-(pyridin-3-ylmethyl)urea]	180 nM	29 nM		
O=C(NCc1cccnc1)Nc1ccc(S(=O)(=O)N2CC[C@@]3(C2)OC(=O)c2ccccc23)cc1 [1-{4-[(1R)-3-oxo-3H-spiro[2-benzofuran-1,3′-pyrrolidine]-1′-ylsulfonyl]phenyl}-3-(pyridin-3-ylmethyl)urea]	41 nM	5 nM		
O=C(NCc1cccnc1)Nc1ccc(S(=O)(=O)c2ccccc2Oc2ccccc2)cc1 [1-{4-[(2-phenoxybenzene)sulfonyl]phenyl}-3-(pyridin-3-ylmethyl)urea]	8 nM	2 nM		
O=C(NCc1cccnc1)Nc1ccc(S(=O)(=O)Nc2ccccc2-c2ccccc2)cc1 [1-{4-[(2-phenylphenyl)sulfamoyl]phenyl}-3-(pyridin-3-ylmethyl)urea]	47 nM	3 nM		
O=C(NCc1cccnc1)Nc1ccc(S(=O)(=O)N2CCCC[C@@H]2CN2CCOCC2)cc1 [1-{4-[(2R)-2-(morpholin-4-ylmethyl)piperidine-1-sulfonyl]phenyl}-3-(pyridin-3-ylmethyl)urea]	81 nM	51 nM		
O=C(NCc1cccnc1)Nc1ccc(S(=O)(=O)N2CCCC[C@@H]2Cc2ccccc2)cc1 [1-{4-[(2R)-2-benzylpiperidine-1-sulfonyl]phenyl}-3-(pyridin-3-ylmethyl)urea]	24 nM	4 nM		
O=C(NCc1cccnc1)Nc1ccc(S(=O)(=O)Nc2cccc(C(=O)c3ccccc3)c2)cc1 [1-{4-[(3-benzoylphenyl)sulfamoyl]phenyl}-3-(pyridin-3-ylmethyl)urea]	1000 to 10000 nM	4.4 nM		
N#Cc1cccc(S(=O)(=O)c2ccc(NC(=O)NCc3cccnc3)cc2)c1 [1-{4-[(3-cyanobenzene)sulfonyl]phenyl}-3-(pyridin-3-ylmethyl)urea]	100 to 1000 nM	8 nM		
O=C(NCc1cccnc1)Nc1ccc(S(=O)(=O)c2cccc(-c3ccccc3)c2)cc1 [1-{4-[(3-phenylbenzene)sulfonyl]phenyl}-3-(pyridin-3-ylmethyl)urea]	100 to 1000 nM	6.8 nM		
N#Cc1ccc(S(=O)(=O)c2ccc(NC(=O)NCc3cccnc3)cc2)cc1 [1-{4-[(4-cyanobenzene)sulfonyl]phenyl}-3-(pyridin-3-ylmethyl)urea]	100 to 1000 nM	7.6 nM		
O=C(NCc1cccnc1)Nc1ccc(S(=O)(=O)c2ccc(-c3ccccc3)cc2)cc1 [1-{4-[(4-phenylbenzene)sulfonyl]phenyl}-3-(pyridin-3-ylmethyl)urea]	100 to 1000 nM	5.8 nM		
O=C(NCc1cccnc1)Nc1ccc(S(=O)(=O)NCC2CCCCC2)cc1 [1-{4-[(cyclohexylmethyl)sulfamoyl]phenyl}-3-(pyridin-3-ylmethyl)urea]	181 nM	4 nM		
O=C(NCc1cccnc1)Nc1ccc(S(=O)(=O)NCc2ccccn2)cc1 [1-{4-[(pyridin-2-ylmethyl)sulfamoyl]phenyl}-3-(pyridin-3-ylmethyl)urea]	1000 to 10000 nM	8.4 nM		
O=C(NCc1ccc(S(=O)(=O)c2ccccc2)cc1)Nc1ccc2ncccc2c1 [1-{[4-(benzenesulfonyl)phenyl]methyl}-3-(quinolin-6-yl)urea]	> 30000 nM	2260 nM		
CC(C)NC(=O)c1cc(S(=O)(=O)c2ccc(NC(=O)NCc3cccnc3)cc2)ccc1F [2-fluoro-N-(propan-2-yl)-5-[(4-{[(pyridin-3-ylmethyl)carbamoyl]amino}benzene)sulfonyl]benzamide]	100 to 1000 nM	20.9 nM		
CC(C)C(=O)NC1CCN(S(=O)(=O)c2ccc(NC(=O)NCc3cccnc3)cc2)CC1 [2-methyl-N-{1-[(4-{[(pyridin-3-ylmethyl)carbamoyl]amino}benzene)sulfonyl]piperidin-4-yl}propanamide]		5 nM	123 nM	
